This assay relates to Pyrenophora teres. Put plainly: In vivo test on Pyrenophora teres (barley net blotch). Conditions: dose of 110 ppm; barley plants (Express variety), preventive spray 24 hours before contamination; grading 12 days after contamination. The method, then:
The active ingredients tested are prepared by homogenization in a mixture of acetone/tween/DMSO, then diluted with water to obtain the desired active material concentration.
Barley plants (Express variety), sown on a 50/50 peat soil-pozzolana substrate in starter cups and grown at 12° C., are treated at the 1-leaf stage (10 cm tall) by spraying with the active ingredient prepared as described above. Plants, used as controls, are treated with the mixture of acetone/tween/DMSO/water not containing the active material.
After 24 hours, the plants are contaminated by spraying them with an aqueous suspension of Pyrenophora teres spores (12,000 spores per ml). The spores are collected from a 12-day-old culture. The contaminated barley plants are incubated for 24 hours at about 20° C. and at 100% relative humidity, and then for 12 days at 80% relative humidity.
Grading is carried out 12 days after the contamination, in comparison with the control plants.

For the compound `O=C(NCCCCc1ncc(C(F)(F)F)cc1Cl)c1ccccc1C(F)(F)F` [Compound 1], the “efficacy (grading in comparison with the control plants)” value is reported as “at least 60%”.
